US6610309B2, “Therapeutic composition comprising an antigen or an in vivo generator of a compound comprising an amino acid sequence” (Societe d'Exploitation de Produits pour les Industries …, priority 1995, dated 2003)
Like-named read-outs stand apart in the source and are kept apart here.

Columns and labels:
mice [1] = details: in vivo, sc
Procedure: (§1) The examples were performed on OF1 mice whose average weight was between 18 and 20 g.
(§2) The therapeutic compositions comprised Sigma Grade V bovine serum albumin (BSA) as antigen.
(§3) The therapeutic compositions were injected subcutaneously.
A therapeutic composition 100 μl in volume, comprising 50 μg of antigen, was injected into various batches of mice each comprising 5 mice. The local reactions (lesions and granulomae) were evaluated on D8 and D35.

anti-BSA antibodies = type: in vivo, OF1 mice; details: last dilution above background noise; for anti-BSA antibody/ primary response (D28) / anti-BSA antibody/ primary response (D14): 50 μg BSA in 100 μl s.c. on D0
Procedure: as §1
The results expressed are an average of the results obtained on 10 mice.
as §2, §3
The humoral immune response was determined by assay of the total IgG and of the total IgG1, according to the ELISA method.
The antibody levels mentioned in the examples correspond to the last dilution above the background noise.
Therapeutic compositions (or doses) of 100 μl each, comprising 50 μg of BSA, are prepared.
These therapeutic compositions were injected into the mice on D0 (i.e. the day of injection).
The level of anti-BSA antibodies was determined 14 and 28 days after the injection (primary response).
On D28, the same therapeutic composition was injected into the same mice.
The level of anti-BSA antibodies was determined on D42 and D56.

total IgG and total IgG1 = assay: Humoral response, comparison of calcium salts (Example 4); type: in vivo, OF1 mice; details: 0.5 mg of calcium salt, 50 μg antigen, 100 μl s.c.; injection repeated on D28; antibodies assayed on D42
Procedure: as §3
(§4) The antibodies were assayed 42 days after the vaccination.
(§5) Injection of the therapeutic composition was repeated on D28. The antibodies were assayed on D42.

IgG2a = assay: Cell response, comparison of calcium salts (Example 4); type: in vivo, OF1 mice; details: 0.5 mg of calcium salt, 50 μg antigen, 100 μl s.c.; injection repeated on D28; antibodies assayed on D42
Procedure: as §3, §4, §5

mice [2] = details: 0.5 mg of calcium salt, 50 μg antigen, 100 μl s.c.; observed during the tests of Example 4
Procedure: as §3
Each therapeutic composition, 100 μl in volume, contained 50 μg of antigen and, except for the control, 0.5 mg of a calcium salt, such that the calcium concentration of each composition was 2.7 mg.
as §5

[3] = adjuvant 1 mg/dose, 50 μg BSA in 100 μl s.c. on D0, repeated on D28
[4] = adjuvant 3 mg/dose, 50 μg BSA s.c. on D0, repeated on D28
[5] = adjuvant 2 mg/dose, 50 μg BSA s.c. on D0, repeated on D28
[6] = adjuvant 0.5 mg/dose, 50 μg BSA s.c. on D0, repeated on D28

Compound	local reactions (D8), Mouse No. 2 (mice [1])	local reactions (D8), Mouse No. 3 (mice [1])	local reactions (D8), Mouse No. 4 (mice [1])	local reactions (D8), Mouse No. 5 (mice [1])	local reactions (D35), Mouse No. 1 (mice [1])	local reactions (D35), Mouse No. 2 (mice [1])	local reactions (D35), Mouse No. 3 (mice [1])	local reactions (D35), Mouse No. 4 (mice [1])	local reactions (D35), Mouse No. 5 (mice [1])	Humoral response (total IgG and total IgG1)	Cell response (IgG2a)	local reactions (D8), Mouse No. 1 (mice [1])	also measured
O=P([O-])([O-])OCC(O)CO.[Mn+2] (centres unmarked) [GlyMn]	+	++	+	−	−	+	+	+	+				
O=C([O-])C(O)C(O)C(O)C(O)C(O)CO.O=C([O-])C(O)C(O)C(O)C(O)C(O)CO.[Zn+2] (centres unmarked) [GluhpZn]													anti-BSA antibody/ primary response (D42) (anti-BSA antibodies; [3]): 64,000; anti-BSA antibody/ primary response (D56) (anti-BSA antibodies; [3]): 64,000; anti-BSA antibody/ primary response (D28) (anti-BSA antibodies; adjuvant 1 mg/dose): 6000; anti-BSA antibody/ primary response (D14) (anti-BSA antibodies; adjuvant 1 mg/dose, average of 10 mice): 8000
[Ca+2].[Cl-].[Cl-] [CaCl2]										64,000	24,000		lesions induced (mice [2]): very large lesions
[Cl][Mn][Cl] [MnCl^2+, reference compound]					+++							+++	
O=C([O-])[O-].[Ca+2] [CaCO3]										32,000	4000		
O=C([O-])[C@H](O)[C@@H](O)[C@H](O)[C@H](O)CO.O=C([O-])[C@H](O)[C@@H](O)[C@H](O)[C@H](O)CO.[Ca+2] [GluCa]	−	−	−	−	−	−	−	−	−	128,000	32,000	−	anti-BSA antibody/ primary response (D14) (anti-BSA antibodies; adjuvant 3 mg/dose): 116,000; anti-BSA antibody/ primary response (D28) (anti-BSA antibodies; adjuvant 3 mg/dose): 8000; anti-BSA antibody/ primary response (D42) (anti-BSA antibodies; [4]): 128,000; anti-BSA antibody/ primary response (D56) (anti-BSA antibodies; [4]): 96,000
O=P([O-])([O-])OCC(O)CO.[Ca+2] (centres unmarked) [GlyCa]													anti-BSA antibody/ primary response (D14) (anti-BSA antibodies; adjuvant 2 mg/dose): 4000; anti-BSA antibody/ primary response (D28) (anti-BSA antibodies; adjuvant 2 mg/dose): 2000; anti-BSA antibody/ primary response (D42) (anti-BSA antibodies; [5]): 64,000; anti-BSA antibody/ primary response (D56) (anti-BSA antibodies; [5]): 64,000
O=C([O-])[C@H](O)[C@@H](O)[C@H](O)[C@H](O)CO.[K+] [GluK]	−	−	−	−	−	−	−	−	−			−	
O=P([O-])([O-])O.[Ca+2] [CaHPO4]										64,000	10,000		
O=C([O-])[C@H](O)[C@@H](O)[C@H](O)[C@H](O)CO.O=C([O-])[C@H](O)[C@@H](O)[C@H](O)[C@H](O)CO.[Zn+2] [GluZn]													anti-BSA antibody/ primary response (D14) (anti-BSA antibodies; adjuvant 0.5 mg/dose): 16,000; anti-BSA antibody/ primary response (D28) (anti-BSA antibodies; adjuvant 0.5 mg/dose): 6000; anti-BSA antibody/ primary response (D42) (anti-BSA antibodies; [6]): 96,000; anti-BSA antibody/ primary response (D56) (anti-BSA antibodies; [6]): 96,000
